# Laboratory results reported in ChEMBL document CHEMBL1137721, “Modeling the activity of furin inhibitors using artificial neural network” (Eur J Med Chem, 2009).
# Biological target: Furin (Homo sapiens, UniProt P09958)
# Experiment: Inhibition of human recombinant furin-dependent anthrax protective antigen processing
# Chain of Furin (P09958 whole entry): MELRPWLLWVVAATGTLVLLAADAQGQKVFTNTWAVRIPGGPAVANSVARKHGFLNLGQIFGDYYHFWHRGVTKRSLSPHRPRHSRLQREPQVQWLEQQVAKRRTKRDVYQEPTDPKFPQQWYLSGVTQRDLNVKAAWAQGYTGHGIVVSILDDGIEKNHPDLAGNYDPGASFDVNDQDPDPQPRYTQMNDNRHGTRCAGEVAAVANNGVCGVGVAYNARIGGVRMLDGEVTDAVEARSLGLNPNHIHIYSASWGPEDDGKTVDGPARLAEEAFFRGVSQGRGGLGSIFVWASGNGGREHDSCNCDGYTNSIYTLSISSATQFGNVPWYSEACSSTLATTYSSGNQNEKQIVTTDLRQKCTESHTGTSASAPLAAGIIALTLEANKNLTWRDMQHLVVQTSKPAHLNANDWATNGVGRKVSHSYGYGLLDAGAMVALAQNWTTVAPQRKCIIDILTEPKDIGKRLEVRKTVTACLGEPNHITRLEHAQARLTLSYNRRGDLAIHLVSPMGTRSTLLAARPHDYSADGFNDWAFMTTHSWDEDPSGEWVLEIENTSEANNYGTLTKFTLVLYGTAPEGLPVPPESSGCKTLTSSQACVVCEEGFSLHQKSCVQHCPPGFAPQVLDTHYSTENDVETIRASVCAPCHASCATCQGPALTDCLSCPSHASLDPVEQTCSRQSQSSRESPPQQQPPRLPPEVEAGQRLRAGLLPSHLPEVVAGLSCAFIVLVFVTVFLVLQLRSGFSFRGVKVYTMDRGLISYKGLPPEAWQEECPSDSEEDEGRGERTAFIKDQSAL
row,Compound,Ki
1,NC(N)=N[C@H]1C[C@@H](N=C(N)N)[C@H](Oc2ccccn2)C[C@@H]1Oc1ccccn1,100 µM
2,NC(N)=Nc1ccc(N[C@H]2C[C@@H](N=C(N)N)[C@H](Oc3ccc(N=C(N)N)cc3)C[C@@H]2Oc2ccc(N=C(N)N)cc2)cc1,0.046 µM
3,N=C(N)N[C@H]1C[C@@H](NC(=N)N)[C@H](Oc2ccc3nc(N)[nH]c3c2)C[C@@H]1Oc1ccc2nc(N)[nH]c2c1,100 µM
4,NC(N)=Nc1cccc(NC(=O)O[C@H]2C[C@@H](OC(=O)Nc3cccc(N=C(N)N)c3)[C@H](N=C(N)N)C[C@@H]2N=C(N)N)c1,1.77 µM
5,N=C(N)Nc1ccccc1NC(=O)O[C@H]1C[C@@H](OC(=O)Nc2ccccc2NC(=N)N)[C@H](NC(=N)N)C[C@@H]1NC(=N)N,100 µM
6,N=C(N)Nc1ccc(O[C@H]2C[C@@H](Oc3ccc(NC(=N)N)c4ccccc34)[C@H](NC(=N)N)C[C@@H]2NC(=N)N)c(N)c1,0.022 µM
7,N=C(N)Nc1ccc(O[C@H]2C[C@@H](Oc3ccc(NC(=N)N)cc3NC(=N)N)[C@H](NC(=N)N)C[C@@H]2NC(=N)N)c(NC(=N)N)c1,0.169 µM
8,NC(N)=Nc1ccc(O[C@H]2C[C@@H](Oc3ccc(N=C(N)N)c4ccccc34)[C@H](N=C(N)N)C[C@@H]2N=C(N)N)c2ccccc12,0.069 µM
9,NC(N)=Nc1ccc(N[C@H]2C[C@@H](N=C(N)N)[C@H](Oc3ccc(N=C(N)N)c4ccccc34)C[C@@H]2Oc2ccc(N=C(N)N)c3ccccc23)c2ccccc12,0.423 µM
10,NC(N)=Nc1ccc(O[C@@H]2C[C@H](Oc3ccc(N=C(N)N)cc3N=C(N)N)[C@@H](N=C(N)N)C[C@H]2N=C(N)N)cc1,0.089 µM
11,N=C(N)Nc1ccc(O[C@H]2C[C@@H](Oc3ccc(NC(=N)N)c4ccccc34)[C@H](NC(=N)N)C[C@@H]2NC(=N)N)cc1,0.006 µM
12,N=C(N)Nc1ccc(O[C@H]2C[C@@H](Oc3ccc(NC(=N)N)cn3)[C@H](NC(=N)N)C[C@@H]2NC(=N)N)nc1,0.042 µM
13,NC(N)=Nc1ccccc1O[C@H]1C[C@@H](Oc2ccccc2N=C(N)N)[C@H](N=C(N)N)C[C@@H]1N=C(N)N,100 µM
14,NC(N)=Nc1cccnc1O[C@H]1C[C@@H](Oc2ncccc2N=C(N)N)[C@H](N=C(N)N)C[C@@H]1N=C(N)N,100 µM
15,NC(N)=Nc1ccc(O[C@H]2C[C@@H](Oc3ccc(N=C(N)N)c4ccccc34)[C@H](N=C(N)N)C[C@@H]2N=C(N)N)c(N=C(N)N)c1,0.404 µM
16,N=C(N)Nc1ccc(NC(=O)O[C@H]2C[C@@H](OC(=O)Nc3ccc(NC(=N)N)cc3)[C@H](NC(=N)N)C[C@@H]2NC(=N)N)cc1,0.812 µM
17,NC(N)=Nc1ccc(O[C@H]2C[C@@H](Oc3ccc(N=C(N)N)cc3)[C@H](N=C(N)N)C[C@@H]2N=C(N)N)cc1,0.012 µM
18,NC(N)=Nc1cnccc1O[C@H]1C[C@@H](Oc2ccncc2N=C(N)N)[C@H](N=C(N)N)C[C@@H]1N=C(N)N,100 µM
